What all share (assay type): in vitro ADME
Series [1] in a line: Metabolism of sepin-1 in human liver microsomes. The following applies: 30 μM sepin-1, NADPH 1.0 mM, 30 min. As to the method:
Incubations were conducted in 1× phosphate-buffered saline (1× PBS, pH 7.4), containing 30 μM sepin-1, 1.0 mg HLM, MLM, RLM, or 2 pmol of each cDNA-expressed P450 enzyme (control, CYP1A2, 2A6, 2B6, 2C8, 2C9, 2C19, 2D6, 2E1, and CYP3A4) in a final volume of 190 μl. After 5 min of pre-incubation at 37°C, the reaction was initiated by adding 10 μl of 20 mM NADPH (final concentration 1.0 mM) and continued for 30 min, with shaking at 37°C. Incubations lacking NADPH served as controls. Reactions were terminated with 200 μl of ice-cold methanol, followed by vortexing for 30 s and centrifuging at 15,000 × g for 15 min. Each supernatant was transferred to an auto sampler vial, and 5.0 μl was injected on to UHPLC coupled with a QTOFMS system for metabolite analysis. Incubations were conducted in quadruplicate for HLM, in triplicate for MLM and RLM, and in duplicate for cDNA-expressed P450 enzymes.
The separation of sepin-1 and its metabolites was achieved using a 1260 Infinity Binary LC System (Agilent Technologies, Santa Clara, CA, United States) equipped with 100 mm × 2.1 mm (Agilent XDB C18) column. The column temperature was maintained at 40°C. The flow rate was 0.3 ml/min, with a gradient ranging from 2% to 98% aqueous acetonitrile containing 0.1% formic acid in a 15-min run. QTOFMS was operated in a positive mode with electrospray ionization. Ultra-high pure nitrogen was applied as the drying gas (12 l/min) and the collision gas. The drying gas temperature was set at 325°C, and the nebulizer pressure was kept at 35 psi. The capillary voltages were set at 3.5 kV. […]
Mass chromatograms and mass spectra were acquired by MassHunter Workstation Data Acquisition Software (Agilent, Santa Clara, CA, United States) in centroid and profile formats from m/z 100 to 1000. […] For the QQQMS data, QQQ Quantitative Analysis Software (Agilent, Santa Clara, CA, United States) was used for metabolite analysis. […] Statistical differences between two groups were determined by Student’s t-test.
(In general: Microsomes from liver hold many membrane-bound enzymes, among them those of drug oxidation.)

In another series the target is T1, CYP1A2 (Homo sapiens, UniProt P05177).
T1 construct: purchased XenoTech
T1 sequence (P05177 1-516): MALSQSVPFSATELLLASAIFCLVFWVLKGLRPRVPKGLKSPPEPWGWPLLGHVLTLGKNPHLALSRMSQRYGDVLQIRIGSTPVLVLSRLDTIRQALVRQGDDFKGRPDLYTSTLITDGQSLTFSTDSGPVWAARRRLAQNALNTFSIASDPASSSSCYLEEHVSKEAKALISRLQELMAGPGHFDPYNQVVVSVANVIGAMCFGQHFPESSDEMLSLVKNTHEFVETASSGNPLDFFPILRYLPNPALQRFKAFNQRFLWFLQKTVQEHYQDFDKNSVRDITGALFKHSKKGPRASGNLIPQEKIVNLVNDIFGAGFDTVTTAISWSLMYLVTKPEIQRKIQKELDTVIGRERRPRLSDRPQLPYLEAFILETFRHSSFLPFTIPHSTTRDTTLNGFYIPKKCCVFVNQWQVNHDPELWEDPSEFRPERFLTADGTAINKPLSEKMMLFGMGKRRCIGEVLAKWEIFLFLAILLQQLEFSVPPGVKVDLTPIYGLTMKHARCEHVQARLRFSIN
Put plainly: Inhibition of sepin-1 on CYP1A2. As to the method:
(§1) Incubations were performed in 1× PBS (pH 7.4), containing 0, 0.156, 0.312, 0.625, 1.25, 2.5, 5, 10, 20, or 40 μM sepin-1, 2 pmol of each cDNA-expressed P450 enzymes, and corresponding substrates: CYP1A2 (phenacetin, 40 μM, 20 min incubation), 2B6 (efavirenz, 20 μM, 30 min), 2C8 (paclitaxel, 10 μM, 30 min), 2C9 (diclofenac, 5 μM, 15 min), 2C19 [(S)-mephenytoin, 40 μM, 20 min], 2D6 (dextromethorphan, 5 μM, 15 min), and CYP3A4 (midazolam, 3 μM, 10 min) in a final volume of 190 μl. After 5 min of pre-incubation at 37°C, the reaction was initiated by adding 10 μl of 20 mM NADPH (final concentration 1.0 mM) and continued for a specific time as presented above with gentle shaking. Incubations without sepin-1 were used as controls. Reactions were terminated by the addition of 200 μl of ice-cold methanol, vortexing for 30 s, and centrifuging at 15,000 × g for 15 min. Each supernatant was transferred to an auto sampler vial and 5.0 μl was injected on to UHPLC coupled with a QQQMS system for the specific metabolite analysis. A MRM method was used. Incubations were conducted in duplicate. Positive controls were performed by using a known specific inhibitor for each of the isoform assays (Supplementary Table S1). […]

In a further series the target is T2, CYP3A4 (Homo sapiens, UniProt P08684).
T2 construct: purchased XenoTech
T2 sequence (P08684 whole entry): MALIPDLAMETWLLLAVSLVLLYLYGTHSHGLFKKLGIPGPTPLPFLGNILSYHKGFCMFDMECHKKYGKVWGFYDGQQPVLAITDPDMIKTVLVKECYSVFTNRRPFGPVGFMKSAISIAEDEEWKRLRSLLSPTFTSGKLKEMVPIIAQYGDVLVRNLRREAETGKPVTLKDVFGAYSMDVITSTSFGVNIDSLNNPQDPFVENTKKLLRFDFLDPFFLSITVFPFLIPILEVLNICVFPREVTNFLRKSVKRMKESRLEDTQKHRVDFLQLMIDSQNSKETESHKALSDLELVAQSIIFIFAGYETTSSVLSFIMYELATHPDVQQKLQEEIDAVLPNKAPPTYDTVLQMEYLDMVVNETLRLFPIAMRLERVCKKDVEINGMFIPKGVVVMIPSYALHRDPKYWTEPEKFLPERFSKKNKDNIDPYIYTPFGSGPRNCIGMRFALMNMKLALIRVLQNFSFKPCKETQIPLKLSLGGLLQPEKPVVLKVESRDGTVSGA
Put plainly: Inhibition of sepin-1 on CYP3A4. The procedure:
as §1

“And” between values parts separate entries of the source, which are not always exact repeats. Identical values can stand only once. Like-named read-outs stand apart in the source and are kept apart here.

`CC1(C)[N+]([O-])=c2ccc([N+](=O)[O-])cc2=[N+]1[O-]` [Sepin-1, 2,2-dimethyl-5-nitro-2H-benzimidazole-1,3-dioxide]: the “Metabolism of parent in HLM (in words)” value in series [1] is reported as “metabolized rapidly”. For the same compound, the IC50 on CYP1A2 (FDA classification bands, read-out: Inhibition potency class on CYP1A2) was 1 to 10 µM; on CYP1A2 (substrate phenacetin 40 μM, 20 min, metabolite acetaminophen, co-incubation, read-out: IC50 on CYP1A2), < 10 µM and 8.1 µM; on CYP3A4 (FDA classification bands, read-out: Inhibition potency class on CYP3A4), 1 to 10 µM; on CYP3A4 (substrate midazolam 3 μM, 10 min, metabolite 1-O-midazolam, co-incubation, read-out: IC50 on CYP3A4) it was < 10 µM and 8.7 µM.

The values are drawn from paper PMC5949348, “The Metabolism of Separase Inhibitor Sepin-1 in Human, Mouse, and Rat Liver Microsomes” (Frontiers in Pharmacology, 2018).
